Marks after values point to notes of the source that are not given here.
Key:
[1] = test system: p16-3MR mice; experiment: RT-qPCR verification of serum circulating microRNA changes, one-way ANOVA; format: in vivo, mouse; conditions: for change of serum level following senolytic treatment (DOX/GCV compared to DOX): p<0.05, in words; for One-way ANOVA Senolytic Treatment (DOX/GCV) / One-way ANOVA Senescence (DOX vs PBS): serum; for One-way ANOVA Senolytic Treatment (DOX/GCV): DOX/GCV compared to DOX; for One-way ANOVA Senescence (DOX vs PBS): n=8 per group, male and female mice; for regulation in serum after exposure to DOX compared to PBS: independent of gender, in words
Protocol: p16-3MR (Demaria et al, 2014, Developmental Cell 31:722-733) mice were bred in house and maintained in the AALAC-accredited Buck Institute for Research on Aging (Novato, Calif.) animal facility. 10 to 12-week-old p16-3MR […] mice were used for experiments. Mice were divided in 4 groups and each group consisted of 8 animals, 5 female, and 3 male, respectively. In group A, control mice were injected with PBS. In group B, mice were treated with Ganciclovir (GCV) (Sigma-Aldrich) dissolved in PBS for 5 consecutive days. In group C, mice were treated with one dose of Doxorubicine hydrochloride (Sigma-Aldrich) dissolved in PBS. In group D, mice were first treated with Doxorubicine and then treated 10 days later with GCV. Mice were intraperitoneally injected with one dose of 10 mg/kg of Doxorubicine hydrochloride, and GCV was administered daily by intraperitoneal injections for 5 consecutive days at concentration of 25 mg/kg in PBS. 4 days after the last GCV dose, animals were euthanized with CO2 and blood was withdrawn immediately. Blood was then incubated for 30 min at room temperature and centrifuged at 3400×g for 10 min. Serum was carefully collected in a sterile tube without disturbing the cell pellet and stored at −80° C. for further experiments.
Total RNA extraction was performed from 200 μl of serum using the Qiagen miRNeasy extraction kit (Qiagen, Germany). RNA yield was quality checked for homogenous extraction efficiency and hemolysis on the basis qPCR amplification of spiked-in as well as hemolysis-responsive RNAs (Blondal et al). In total 2 μl total RNA were used for reverse transcription using the Exiqon Universal RT kit II (Exiqon, Denmark). The obtained cDNA samples were pre-diluted 1:40 and subsequently mixed with SYBR Green® Mix (Exiqon, Denmark) to achieve a 1:100 dilution. The mix was distributed to primer-coated 384-well plates containing dried primer pairs for 96 selected microRNA or quality control assays. QPCR amplification was performed on a Roche LightCycler 480 II, using the manufacturer's recommendation for annealing, extension and denaturation.
Raw Cq-values were computed using the 2nd derivative method. Melting curves were checked for peaks to ensure specificity of the amplification reactions. Cq-values were subsequently normalized using Spike-In controls as references, to reduce technical noise in the data.
(§1) Statistical analysis was performed using Medcalc (version 18.2.1). Normal distribution was assessed using D'Agostino-Pearson test, where normality was accepted at p>0.05. One-way ANOVA together together with Student-Newman-Keuls test for all pairwise comparisons (post-hoc tests) was used to identify significant changes between groups (p<0.05). To assess the discriminatory power of individual microRNAs, receiver operating characteristic (ROC) analysis was applied. ROC curves were plotted using sensitivity (y-axis) and 1-specificity (x-axis) and the area under the ROC curve (AUC) was calculated. MicroRNAs with AUC-values of >0.7 were considered as good discriminators/biomarkers. MicroRNAs with AUC-values >0.8 were considered very good discriminators/biomarkers.

[2] = test system: p16-3MR mice; experiment: ROC analysis of discriminatory power of circulating microRNAs; format: in vivo, mouse; conditions: serum, RT-qPCR, symbol after the number = significance; for ROC Analysis AUC Senescence: DOX vs PBS; for ROC Analysis AUC Senolytic Treatment: DOX/GCV vs DOX
Protocol: as §1
In order to assess the diagnostic power of circulating microRNAs for the exposure with senescence inducing substances (DOX) as well as the efficacy of senolytic treatment, ROC analysis was performed and the area-under-the-curve (AUC) was calculated. […] Table 23 below summarizes AUC values as well as 95% confidence intervals for 24 selected circulating microRNAs.

[3] = test system: p16-3MR mice; experiment: Pearson correlation of serum miRNA levels to miR-34a-5p and miR-27a-3p; set-up: species or system mouse; conditions: for Pearson Correlcation coefficient miR44a-5p: correlation of serum level to miR44a-5p (so in the source); for Pearson Correlcation coefficient miR-27a-3p: correlation of serum level to miR-27a-3p
Text: In order to extend these finding to potential additional miRNAs, we performed Pearson correlation to miR-34a-5p and miR-27a-3p, resulting in additional potential biomarkers (Table 18).

Substance | change of serum level following senolytic treatment (DOX/GCV compared to DOX) [1] | One-way ANOVA Senolytic Treatment (DOX/GCV) [1] | One-way ANOVA Senescence (DOX vs PBS) [1] | ROC Analysis AUC Senescence [2] | ROC Analysis AUC Senolytic Treatment [2] | regulation in serum after exposure to DOX compared to PBS [1] | Pearson Correlcation coefficient miR44a-5p [3] | Pearson Correlcation coefficient miR-27a-3p [3]
miR-23b-3p: circulating microRNA biomarker, SEQ ID No. 47 (AUCACAUUGCCAGGGAUUACC; expressed or natural sequence; listed as Homo sapiens) | significantly changed | * (significant p < 0.05) | ○ | 0.563° | 0.875* |  |  | 
miR-31-5p: circulating microRNA biomarker, SEQ ID No. 87 (AGGCAAGAUGCUGGCAUAGCU; expressed or natural sequence; listed as Homo sapiens) | significantly changed | ○ | + (by trend p < 0.2) | 0.688+ | 0.672° |  |  | 
miR-34a-3p: circulating microRNA biomarker, SEQ ID No. 59 (CAAUCAGCAAGUAUACUGCCCU; expressed or natural sequence; listed as Homo sapiens) |  | ○ | * (significant p < 0.05) | 0.953* | 0.5° | significantly (up- or down-regulated) |  | 
miR-125a-5p: circulating microRNA biomarker, SEQ ID No. 90 (UCCCUGAGACCCUUUAACCUGUGA; expressed or natural sequence; listed as Homo sapiens) | significantly changed | * (significant p < 0.05) | + (by trend p < 0.2) | 0.742+ | 0.789* |  |  | 
miR-181b-5p: circulating microRNA biomarker, SEQ ID No. 84 (AACAUUCAUUGCUGUCGGUGGGU; expressed or natural sequence; listed as Homo sapiens) | significantly changed | + (by trend p < 0.2) | + (by trend p < 0.2) | 0.680+ | 0.75+ |  |  | 
miR-183-3p: circulating microRNA biomarker, SEQ ID No. 85 (GUGAAUUACCGAAGGGCCAUAA; expressed or natural sequence; listed as Homo sapiens) | significantly changed | * (significant p < 0.05) | ○ | 0.563° | 0.891* |  |  | 
miR-199a-5p: circulating microRNA biomarker, SEQ ID No. 81 (CCCAGUGUUCAGACUACCUGUUC; expressed or natural sequence; listed as Homo sapiens) |  | + (by trend p < 0.2) | * (significant p < 0.05) | 0.906* | 0.781* | significantly (up- or down-regulated) |  | 
miR-199b-5p: circulating microRNA biomarker, SEQ ID No. 82 (CCCAGUGUUUAGACUAUCUGUUC; expressed or natural sequence; listed as Homo sapiens) |  | + (by trend p < 0.2) | * (significant p < 0.05) | 0.750+ | 0.734+ | significantly (up- or down-regulated) |  | 
miR-215-5p: circulating microRNA biomarker, SEQ ID No. 86 (AUGACCUAUGAAUUGACAGAC; expressed or natural sequence; listed as Homo sapiens) | significantly changed | * (significant p < 0.05) | ○ | 0.531° | 0.922* |  |  | 
miR-345-5p: circulating microRNA biomarker, SEQ ID No. 83 (GCUGACUCCUAGUCCAGGGCUC; expressed or natural sequence; listed as Homo sapiens) |  | * (significant p < 0.05) | * (significant p < 0.05) | 0.781* | 0.875* | significantly (up- or down-regulated) |  | 
miR-375-5p: circulating microRNA biomarker, SEQ ID No. 88 (UUUGUUCGUUCGGCUCGCGUGA; expressed or natural sequence; listed as Homo sapiens) | significantly changed | * (significant p < 0.05) | ○ | 0.570° | 0.859* |  |  | 
miR-409-3p: circulating microRNA biomarker, SEQ ID No. 89 (GAAUGUUGCUCGGUGAACCCCU; expressed or natural sequence; listed as Homo sapiens) | significantly changed | * (significant p < 0.05) | ○ | 0.609° | 0.859* |  |  | 
miR-483-5p: circulating microRNA biomarker, SEQ ID No. 91 (AAGACGGGAGGAAAGAAGGGAG; expressed or natural sequence; listed as Homo sapiens) | significantly changed | * (significant p < 0.05) | ○ | 0.563° | 0.766* |  |  | 
mmu-miR-10a-3p: circulating microRNA, SEQ ID No. 16 (CAAAUUCGUAUCUAGGGGAAUA; expressed or natural sequence; listed as Homo sapiens) |  |  |  |  |  |  | 0.52 | 0.90
mmu-miR-29a-3p: circulating microRNA, SEQ ID No. 22 (UAGCACCAUCUGAAAUCGGUUA; expressed or natural sequence; listed as Homo sapiens) |  |  |  |  |  |  | 0.74 | 0.74
mmu-miR-30b-5p: circulating microRNA, SEQ ID No. 9 (UGUAAACAUCCUACACUCAGCU; expressed or natural sequence; listed as Homo sapiens) |  |  |  |  |  |  | 0.70 | 0.65
mmu-miR-191-5p: circulating microRNA, SEQ ID No. 18 (CAACGGAAUCCCAAAAGCAGCUG; expressed or natural sequence; listed as Homo sapiens) |  |  |  |  |  |  | 0.32 | 0.81
mmu-miR-223-3p: circulating microRNA, SEQ ID No. 19 (UGUCAGUUUGUCAAAUACCCCA; expressed or natural sequence; listed as Homo sapiens) |  |  |  |  |  |  | 0.55 | 0.83
